One data set in a line: in vivo. The note with it: mouse, po, 10 mg/kg. As to the method: The increase in drug bioavailability is defined as an increase in the Area Under the Curve (AUC). AUC is the integrated measure of systemic drug concentrations over time in units of mass-time/volume. The AUC from time zero (the time of dosing) to time infinity (when no drug remains in the body) following the administration of a drug dose is a measure of the exposure of the test subject, i.e. an animal or a human patient, to the drug.
Mice were treated orally (80 mg/kg po) with compound (6) about 10 to 20 minutes prior to oral administration of taxol (10 mg/kg po). The Area Under the Curve (AUC) was measured and compared with the AUC of mice treated only with taxol.

Data set [1] concerns P388/ADR (adriamycine resistance cell line) murine leukemia. The data set can be described thus: MDR in vivo test: reversal of adriamycine resistance in P388/ADR murine leukemia, survival. The note with it: for MST %: control = 100%. Also noted: species or system mice. As to the method:
Male B6D2F1 mice (18-21 g) were injected intraperitoneally with 1×10^5 P388/ADR cells at day 0. Daily intraperitoneal treatment with adriamycine, a test compound of formula (I) or a combination of both was installed from day 1 until day 10. Control animals received the vehicle (15% 4-OH-propyl-β-cyclodextrine in saline). Each group consisted of 8 animals. Adriamycine was dosed at a concentration of 1.25 mg/kg body weight, half the maximal tolerable dose of adriamycine in this treatment schedule. The test compound was dosed at 20, 10, 5, 2.5, 1.25 and 0.63 mg/kg either as single treatment or combined with adriamycine.
Survival of the animals was recorded each day and expressed as a percentage of the median survival in the treated groups compared to the median survival in the control group, the latter to be said to be 100%.
Table C-1 lists the effect of compound 6 and adriamycine on the survival of mice injected with P388/ADR leukemia.
doses of compound 6 and adriamycine are expressed as mg/kg body weight.
column “% Change vs. ADR” give the difference in MST% of the different groups compared to the MST% in the adriamycine-monotherapy group.

[2] abbreviates: adriamycine 1.25 mg/kg alone, ip daily day 1-10.
[3] abbreviates: compound 6 0.63 mg/kg combined with adriamycine 1.25 mg/kg.
Where [4] appears, read: compound 6 0.63 mg/kg single treatment.
[5] abbreviates: compound 6 1.25 mg/kg combined with adriamycine 1.25 mg/kg.
Where [6] appears, read: compound 6 1.25 mg/kg single treatment.
[7] abbreviates: compound 6 2.5 mg/kg combined with adriamycine 1.25 mg/kg.
Where [8] appears, read: compound 6 2.5 mg/kg single treatment.
Where [9] appears, read: compound 6 5 mg/kg combined with adriamycine 1.25 mg/kg.
Where [10] appears, read: compound 6 5 mg/kg single treatment.
Setting [11] is: compound 6 10 mg/kg combined with adriamycine 1.25 mg/kg.
Where [12] appears, read: compound 6 10 mg/kg single treatment.
The mark [13] stands for this setting: compound 6 20 mg/kg combined with adriamycine 1.25 mg/kg.
The mark [14] stands for this setting: compound 6 20 mg/kg single treatment.

One may read the melting point as the temperature, or range, at which the solid turns liquid. As to `O=C(O)c1cnc2n1CCc1ccccc1C2=C1CCN(CCc2ccc(OCc3ccc4ccccc4n3)cc2)CC1` [Compound 7, 6,11-dihydro-11-[1-[2-[4-(2-quinolinylmethoxy)phenyl]ethyl]-4-piperidinylidene]-5H-imidazo[2,1-b][3]benzazepine-3-carboxylic acid], the melting point stood at 174.2 °C.

The term AUC denotes concentration integrated over time. A low value points to less exposure. Molecule `CC(=O)O[C@H]1C(=O)[C@@]2(C)[C@H]([C@H](OC(=O)c3ccccc3)[C@]3(O)C[C@H](OC(=O)[C@H](O)[C@@H](NC(=O)c4ccccc4)c4ccccc4)C(C)=C1C3(C)C)[C@]1(OC(C)=O)CO[C@@H]1C[C@@H]2O` [taxol, paclitaxel] displayed an area under the curve (AUC) in “in vivo” of 820 ± 110 ng·h/mL.

In the case of `O=Cc1cnc2n1CCc1ccccc1C2=C1CCN(CCc2ccc(OCc3ccc4ccccc4n3)cc2)CC1` [Compound 4, 6,11-dihydro-11-[1-[2-[4-(2-quinolinylmethoxy)phenyl]ethyl]-4-piperidinylidene]-5H-imidazo[2,1-b][3]benzazepine-3-carboxaldehyde], the melting point stood at 193.5 °C.

`COc1cccc2c1C(=O)c1c(O)c3c(c(O)c1C2=O)C[C@@](O)(C(=O)CO)C[C@@H]3O[C@H]1C[C@H](N)[C@H](O)[C@H](C)O1` [Adriamycine, adriamycine, reference compound]: in data set [1] (setting [2]), the “% Change vs. ADR” value was found to be 0%, the “Survival Days med(min-max)” value is on record as 13(12-15) Days and the MST % was 118%.

As for `COc1cc(CN2CCC(=C3c4ccccc4CCn4ccnc43)CC2)cc(OC)c1OCc1ccc2ccccc2n1` [Compound 32, 11-[1-[[3,5-dimethoxy-4-(2-quinolinylmethoxy)-phenyl]methyl]-4-piperidinylidene]-6,11-dihydro-5H-imidazo[2,1-b][3]benzazepine], the melting point amounted to 214.8 °C.

Turning to `COC(=O)c1cnc2n1CCc1ccccc1C2=C1CCN(CCc2ccc(OCc3ccc4ccccc4n3)cc2)CC1` [Compound 6, methyl 6,11-dihydro-11-[1-[2-[4-(2-quinolinylmethoxy)phenyl]ethyl]-4-piperidinylidene]-5H-imidazo[2,1-b][3]-benzazepine-3-carboxylate], the “% Change vs. ADR” value in data set [1] (setting [3]) is 14%; in data set [1] (setting [4]), −18%; in data set [1] (setting [5]), 18%; in data set [1] (setting [6]), −13%; in data set [1] (setting [7]), 14%; in data set [1] (setting [8]) it was −23%. Moreover, the “% Change vs. ADR” value in data set [1] (setting [9]) is given as 14%; in data set [1] (setting [10]), −18%; in data set [1] (setting [11]), 18%; in data set [1] (setting [12]) it was −23%; in data set [1] (setting [13]), 23%; in data set [1] (setting [14]) it was −18%. The “Survival Days med(min-max)” value in data set [1] (compound 6 0.63 mg/kg combined with adriamycine 1.25 mg/kg, ip daily day 1-10) is given as 14.5(14->30) Days; in data set [1] (compound 6 0.63 mg/kg single treatment, ip daily day 1-10) it was 11(10-12) Days; in data set [1] (compound 6 1.25 mg/kg combined with adriamycine 1.25 mg/kg, ip daily day 1-10), 15(14-17) Days; in data set [1] (compound 6 1.25 mg/kg single treatment, ip daily day 1-10), 11.5(10-16) Days; in data set [1] (compound 6 2.5 mg/kg combined with adriamycine 1.25 mg/kg, ip daily day 1-10), 14.5(10-20) Days; in data set [1] (compound 6 2.5 mg/kg single treatment, ip daily day 1-10) it was 10.5(10-12) Days. Further, the “Survival Days med(min-max)” value in data set [1] (compound 6 5 mg/kg combined with adriamycine 1.25 mg/kg, ip daily day 1-10) is reported as 14.5(11-16) Days; in data set [1] (compound 6 5 mg/kg single treatment, ip daily day 1-10), 11(10-13) Days; in data set [1] (compound 6 10 mg/kg combined with adriamycine 1.25 mg/kg, ip daily day 1-10) it was 15(14-28) Days; in data set [1] (compound 6 10 mg/kg single treatment, ip daily day 1-10), 10.5(10-13) Days; in data set [1] (compound 6 20 mg/kg combined with adriamycine 1.25 mg/kg, ip daily day 1-10), 15.5(14-17) Days; in data set [1] (compound 6 20 mg/kg single treatment, ip daily day 1-10), 11(10-14) Days. Besides, the MST % in data set [1] (setting [3]) is 132%; in data set [1] (setting [4]), 100%; in data set [1] (setting [5]), 136%; in data set [1] (setting [6]), 105%; in data set [1] (setting [7]) it was 132%; in data set [1] (setting [8]), 95%. Moreover, the MST % is 132% in data set [1] (setting [9]); 100% in data set [1] (setting [10]); 136% in data set [1] (setting [11]); 95% in data set [1] (setting [12]); 141% in data set [1] (setting [13]); 100% in data set [1] (setting [14]).

As to `OC1Cn2ccnc2C(=C2CCN(CCc3ccc(OCc4ccc5ccccc5n4)cc3)CC2)c2ccsc21` (racemic) [Compound 28, (±)-6,10-dihydro-10-[1-[2-[4-(2-quinolinylmethoxy)-phenyl]ethyl]-4-piperidinylidene]-5H-imidazo[1,2-a]-thieno[3,2-d]azepin-6-ol], the melting point turned out to be 242.1 °C.

For the origin of these results see patent US6544979B1, “Fused imidazole derivatives for improving oral bioavailability of pharmaceutical agents” (Janssen Pharmaceuticals, N.V., priority 1997, dated 2003).
